What all share (settings): Compound Concentration 10.0 uM, Hit No
Test [1] concerns the target Methyl-CpG-binding domain protein 4 (Homo sapiens) (UniProt O95243).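 Also: MBD4 activity read as fluorescence at 594 nm from cleavage and release of a quenched duplex DNA oligonucleotide, with APE1 coupled to incise the strand and raise turnover.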
Description: Inhibition of MBD4 by quantifying inhibition of MBD4-mediated cleavage and dissociation of quenched duplex DNA oligonucleotides, measured as fluorescence at 594 nm. To generate a functional strand incision and increase turn-over this assay is coupled to APE1.
For test [2], the target named is G/T mismatch-specific thymine DNA glycosylase (Homo sapiens) (UniProt Q13569).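 Also: human TDG cleavage of quenched duplex DNA oligonucleotides coupled to APE1, strand release read as fluorescence at 594 nm, inhibition of TDG activity.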
Description: Inhibition of TDG by quantifying inhibition of TDG-mediated cleavage and dissociation of quenched duplex DNA oligonucleotides, measured as fluorescence at 594 nm. To generate a functional strand incision and increase turn-over this assay is coupled to APE1.
The target of test [3] is N-glycosylase/DNA lyase (Homo sapiens) (UniProt O15527).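 Also: OGG1 cleavage of a quenched duplex DNA oligonucleotide, coupled to APE1 for strand incision, read as fluorescence at 594 nm.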
Description: Inhibition of OGG1 by quantifying inhibition of OGG1-mediated cleavage and dissociation of quenched duplex DNA oligonucleotides, measured as fluorescence at 594 nm. To generate a functional strand incision and increase turn-over this assay is coupled to APE1.
The target in test [4] is T1, Single-strand selective monofunctional uracil DNA glycosylase (Homo sapiens) (UniProt Q53HV7).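 Also: enzymatic SMUG1 assay coupled with APE1, reading fluorescence at 594 nm released when a quenched double-stranded DNA oligonucleotide substrate is cleaved and separated.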
T1 sequence (whole entry): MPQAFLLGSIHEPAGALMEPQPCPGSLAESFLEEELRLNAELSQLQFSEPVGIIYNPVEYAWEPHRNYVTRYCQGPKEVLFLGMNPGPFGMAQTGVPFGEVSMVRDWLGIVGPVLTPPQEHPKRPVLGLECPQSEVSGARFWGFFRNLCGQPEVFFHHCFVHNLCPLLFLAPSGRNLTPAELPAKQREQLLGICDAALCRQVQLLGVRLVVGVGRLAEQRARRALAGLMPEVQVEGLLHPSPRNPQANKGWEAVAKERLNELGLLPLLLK
Description: Inhibition of SMUG1 by quantifying inhibition of SMUG1-mediated cleavage and dissociation of quenched duplex DNA oligonucleotides, measured as fluorescence at 594 nm. To generate a functional strand incision and increase turn-over this assay is coupled to APE1.

The target in test [5] is Endonuclease 8-like 1 (Homo sapiens) (UniProt Q96FI4).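 Also: fluorescence at 594 nm from quenched duplex DNA oligonucleotides released by NEIL1 cleavage and strand separation, reported as reduction of this enzyme activity.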
Description: Inhibition of NEIL1 by quantifying inhibition of NEIL1-mediated cleavage and dissociation of quenched duplex DNA oligonucleotides, measured as fluorescence at 594 nm.
Test [6] deals with T2, Endonuclease III-like protein 1 (Homo sapiens) (UniProt P78549).
T2 sequence (whole entry): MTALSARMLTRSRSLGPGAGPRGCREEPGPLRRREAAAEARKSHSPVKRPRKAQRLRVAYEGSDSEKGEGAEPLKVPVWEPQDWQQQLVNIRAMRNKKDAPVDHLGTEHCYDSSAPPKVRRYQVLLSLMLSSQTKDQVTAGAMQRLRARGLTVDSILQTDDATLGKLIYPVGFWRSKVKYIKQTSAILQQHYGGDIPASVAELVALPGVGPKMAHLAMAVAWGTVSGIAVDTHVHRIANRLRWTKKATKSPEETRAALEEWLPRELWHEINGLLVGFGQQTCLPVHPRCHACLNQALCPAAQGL
Description: Inhibition of NTHL1 by quantifying inhibition of NTHL1-mediated cleavage and dissociation of quenched duplex DNA oligonucleotides, measured as fluorescence at 594 nm.

For test [7], the target named is DNA-3-methyladenine glycosylase (Homo sapiens) (UniProt P29372).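 Also: enzyme assay where MPG cuts a quenched duplex DNA oligonucleotide probe, paired with APE1 for strand incision and turnover, read as fluorescence at 594 nm.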
Description: Inhibition of MPG by quantifying inhibition of MPG-mediated cleavage and dissociation of quenched duplex DNA oligonucleotides, measured as fluorescence at 594 nm. To generate a functional strand incision and increase turn-over this assay is coupled to APE1.
The target of test [8] is T3, Adenine DNA glycosylase (Homo sapiens) (UniProt Q9UIF7).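 Also: human MUTYH activity read as 594 nm fluorescence from cleavage and release of a quenched DNA duplex, coupled with APE1 for strand incision, lower signal meaning inhibition.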
T3 sequence (whole entry): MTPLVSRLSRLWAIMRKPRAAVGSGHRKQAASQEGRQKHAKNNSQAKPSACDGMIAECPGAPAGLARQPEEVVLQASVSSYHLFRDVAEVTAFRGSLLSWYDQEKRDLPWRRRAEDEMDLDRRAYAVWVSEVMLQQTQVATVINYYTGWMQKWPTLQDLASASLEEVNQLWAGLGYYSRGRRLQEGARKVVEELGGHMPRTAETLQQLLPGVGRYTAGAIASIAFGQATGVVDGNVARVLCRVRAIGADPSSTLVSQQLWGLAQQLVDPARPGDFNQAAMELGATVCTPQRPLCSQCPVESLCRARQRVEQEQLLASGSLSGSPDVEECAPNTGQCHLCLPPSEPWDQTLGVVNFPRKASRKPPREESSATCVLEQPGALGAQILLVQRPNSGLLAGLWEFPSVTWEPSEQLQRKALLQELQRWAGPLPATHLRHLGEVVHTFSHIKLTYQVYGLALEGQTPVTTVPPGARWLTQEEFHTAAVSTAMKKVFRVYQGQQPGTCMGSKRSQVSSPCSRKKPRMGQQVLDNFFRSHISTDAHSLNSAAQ
Description: Inhibition of MUTYH by quantifying inhibition of MUTYH-mediated cleavage and dissociation of quenched duplex DNA oligonucleotides, measured as fluorescence at 594 nm. To generate a functional strand incision and increase turn-over this assay is coupled to APE1.

Test [9] has as its target T4, Endonuclease 8-like 2 (Homo sapiens) (UniProt Q969S2).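 Also: fluorescence at 594 nm reports NEIL2 cutting and release of a quenched double-stranded DNA oligo substrate, reduced signal read as inhibition.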
T4 sequence (whole entry): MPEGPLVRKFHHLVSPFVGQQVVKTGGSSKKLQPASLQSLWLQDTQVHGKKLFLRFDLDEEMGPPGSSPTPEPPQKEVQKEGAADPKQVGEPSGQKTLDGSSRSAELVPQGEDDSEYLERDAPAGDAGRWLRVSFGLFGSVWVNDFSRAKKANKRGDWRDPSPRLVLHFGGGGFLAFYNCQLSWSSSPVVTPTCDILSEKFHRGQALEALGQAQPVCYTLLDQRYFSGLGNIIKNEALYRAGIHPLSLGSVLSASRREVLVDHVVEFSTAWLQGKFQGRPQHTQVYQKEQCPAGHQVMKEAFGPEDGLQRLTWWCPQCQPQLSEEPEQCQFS
Description: Inhibition of NEIL2 by quantifying inhibition of NEIL2-mediated cleavage and dissociation of quenched duplex DNA oligonucleotides, measured as fluorescence at 594 nm.

Test [10] addresses Uracil-DNA glycosylase (Homo sapiens) (UniProt P13051).
Description: Inhibition of UNG by quantifying inhibition of UNG-mediated cleavage and dissociation of quenched duplex DNA oligonucleotides, measured as fluorescence at 594 nm. To generate a functional strand incision and increase turn-over this assay is coupled to APE1.

17 compounds from ChEMBL document CHEMBL5665443, “Enzyme Inhibitor Single Concentration assay results for EUbOPEN Chemogenomics Library” (2024) can be followed below.

Where “and” joins values, the source holds several entries; their conditions need not be identical. Equal values may be shown once.

Chain of N-glycosylase/DNA lyase (Homo sapiens) (O15527 whole entry): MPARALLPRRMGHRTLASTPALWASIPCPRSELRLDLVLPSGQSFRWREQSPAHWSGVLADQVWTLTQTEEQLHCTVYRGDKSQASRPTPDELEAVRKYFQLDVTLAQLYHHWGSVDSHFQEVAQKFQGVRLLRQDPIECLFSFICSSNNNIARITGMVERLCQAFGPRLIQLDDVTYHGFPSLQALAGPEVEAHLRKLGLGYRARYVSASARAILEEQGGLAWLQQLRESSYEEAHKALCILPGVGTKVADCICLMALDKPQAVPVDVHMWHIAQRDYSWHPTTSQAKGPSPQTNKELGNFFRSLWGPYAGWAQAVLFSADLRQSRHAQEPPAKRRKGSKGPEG
Chain of G/T mismatch-specific thymine DNA glycosylase (Homo sapiens) (Q13569 whole entry): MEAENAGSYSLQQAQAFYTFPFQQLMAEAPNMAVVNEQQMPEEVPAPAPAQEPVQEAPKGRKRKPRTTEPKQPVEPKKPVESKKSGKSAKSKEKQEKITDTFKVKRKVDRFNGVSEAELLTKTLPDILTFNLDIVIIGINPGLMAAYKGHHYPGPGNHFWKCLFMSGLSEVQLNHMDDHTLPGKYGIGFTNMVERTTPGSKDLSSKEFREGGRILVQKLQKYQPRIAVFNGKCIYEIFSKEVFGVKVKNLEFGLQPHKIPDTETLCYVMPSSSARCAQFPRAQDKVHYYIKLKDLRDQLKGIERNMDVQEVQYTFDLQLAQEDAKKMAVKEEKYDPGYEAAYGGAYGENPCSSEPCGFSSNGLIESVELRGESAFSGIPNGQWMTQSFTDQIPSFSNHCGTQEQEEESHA
Chain of Methyl-CpG-binding domain protein 4 (Homo sapiens) (O95243 whole entry, the tested form may be a part): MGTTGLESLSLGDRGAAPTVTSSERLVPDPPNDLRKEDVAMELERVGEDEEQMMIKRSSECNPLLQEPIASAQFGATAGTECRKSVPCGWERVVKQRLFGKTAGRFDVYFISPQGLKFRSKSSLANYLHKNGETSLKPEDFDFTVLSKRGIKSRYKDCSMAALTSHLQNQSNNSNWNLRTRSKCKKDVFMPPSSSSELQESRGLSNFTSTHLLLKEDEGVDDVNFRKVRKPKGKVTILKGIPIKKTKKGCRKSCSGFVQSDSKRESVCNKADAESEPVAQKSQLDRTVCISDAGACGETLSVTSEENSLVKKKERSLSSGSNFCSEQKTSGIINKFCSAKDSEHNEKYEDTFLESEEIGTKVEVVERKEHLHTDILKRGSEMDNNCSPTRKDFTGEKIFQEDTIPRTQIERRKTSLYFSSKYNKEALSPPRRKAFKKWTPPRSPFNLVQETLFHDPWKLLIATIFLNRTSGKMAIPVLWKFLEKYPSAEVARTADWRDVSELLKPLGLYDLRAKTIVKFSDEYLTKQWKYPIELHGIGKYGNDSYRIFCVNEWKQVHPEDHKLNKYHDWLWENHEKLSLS
Chain of Endonuclease 8-like 1 (Homo sapiens) (Q96FI4 whole entry): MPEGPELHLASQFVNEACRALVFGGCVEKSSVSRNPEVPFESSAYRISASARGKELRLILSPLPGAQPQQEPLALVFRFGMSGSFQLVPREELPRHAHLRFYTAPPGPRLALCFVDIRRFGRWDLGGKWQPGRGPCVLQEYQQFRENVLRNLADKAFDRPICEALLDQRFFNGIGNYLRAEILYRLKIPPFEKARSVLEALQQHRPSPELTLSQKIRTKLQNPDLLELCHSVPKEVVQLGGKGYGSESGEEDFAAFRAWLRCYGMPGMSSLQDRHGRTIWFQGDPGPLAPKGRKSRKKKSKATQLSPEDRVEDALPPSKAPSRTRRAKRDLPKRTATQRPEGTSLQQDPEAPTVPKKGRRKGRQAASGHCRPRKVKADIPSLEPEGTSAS
Chain of DNA-3-methyladenine glycosylase (Homo sapiens) (P29372 whole entry): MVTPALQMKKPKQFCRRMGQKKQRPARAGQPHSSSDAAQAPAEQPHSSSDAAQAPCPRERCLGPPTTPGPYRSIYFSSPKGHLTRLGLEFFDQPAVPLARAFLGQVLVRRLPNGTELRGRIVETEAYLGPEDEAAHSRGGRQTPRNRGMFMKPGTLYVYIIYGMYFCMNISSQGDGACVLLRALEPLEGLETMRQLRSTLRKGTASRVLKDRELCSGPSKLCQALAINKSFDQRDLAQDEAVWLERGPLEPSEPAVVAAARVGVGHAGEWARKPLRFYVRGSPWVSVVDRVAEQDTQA
Chain of Uracil-DNA glycosylase (Homo sapiens) (P13051 whole entry): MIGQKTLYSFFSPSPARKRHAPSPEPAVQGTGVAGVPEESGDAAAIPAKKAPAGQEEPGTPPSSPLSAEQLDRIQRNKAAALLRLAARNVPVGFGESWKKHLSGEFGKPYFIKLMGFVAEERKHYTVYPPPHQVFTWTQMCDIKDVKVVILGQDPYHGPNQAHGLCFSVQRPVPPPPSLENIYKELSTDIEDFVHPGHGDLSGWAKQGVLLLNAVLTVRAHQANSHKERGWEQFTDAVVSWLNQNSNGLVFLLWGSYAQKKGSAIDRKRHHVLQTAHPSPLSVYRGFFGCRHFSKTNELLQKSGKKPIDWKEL

A word on the inhibition: it is the change of the read-out against control, counted positive when it falls. For `CC(C)[C@@H]1CC[C@@H](C)C[C@@H]1P(=O)(c1ccccc1)c1ccccc1`, the inhibition was 3.26% in [1]; -6.96% in test [2]; -2.54% in test [3]; -9.39% in test [4]; -6.96% in test [5]; 6.35% in test [6]. Also, the inhibition was -5.97% in test [7] and 1.29% in [8].
`Cc1nnn(-c2ccc(-c3ccc(C4(C(=O)O)CC4)cc3)cc2)c1NC(=O)O[C@H](C)c1ccccc1`: the inhibition in [1] was 34.4%; in test [2], 20.7%; in test [3] it was -1.41%; in test [4], 4.91%; in [5], -1.39%; in test [6] it was -7.6%. The inhibition in test [9] stood at 4.01%; in [7], 13.9%; in test [8], 17.2%.
As to `O=C(O)c1n[nH]c2c1C[C@H]1C[C@@H]21`, the inhibition in test [1] is -4.32%; in test [2], -5.48%; in test [3], -1.41%; in [4], -5.22%; in test [5], -0.352% and 3.65%; in [6] it was 21.7%. The inhibition in [9] was -1.48% and -4.98%; in test [7] it was -4.72%; in test [8] it was -6.12%.
As for `CC(C)(O)c1cnc(N2C[C@@]3(CCC[C@](C)(Cn4cnc5ccc(C#N)cc54)C3)OC2=O)cn1`, the inhibition in test [1] was 9.84%; in test [2], 6.22%; in test [4] it was 2.98%; in test [10] it was -2.44%; in test [5] it was 1.2%; in [6], 8%. Also, the inhibition in [9] came out at 5.76%; in test [7], 10.5%; in test [8], 47.1%.
Take `NCCc1cccs1`: the inhibition is 2.05% in test [1]; 6.37% in [2]; -0.24% in test [4]; -3.89% in test [10]; 7.57% in test [5]; 8.82% in [6]. Besides, the inhibition in test [9] was 9.33%; in test [7], -5.51%; in test [8], -1.84%.
`COc1cc(C(=O)N(CCC2CCCN2C)C/C(C)=C/c2ccccc2F)cc(OC)c1OC` (configuration not stated): the inhibition in test [1] is -5.37%; in test [2], 0.239%; in test [4], -3.01%; in [10] it was -3.28%; in test [5], 4.16%; in [6] it was -5.21%. The inhibition was -1.62% in test [9], -9.88% in test [7] and -4.18% in test [8].
Consider `O=S1(=O)NCN(C2CC2)c2ccc(F)cc21`, for which the inhibition is 0.854% in [1]; 10.8% in test [2]; -1.26% in test [4]; -3.37% in [10]; 3.86% in test [5]; 10.5% in test [6]. Moreover, the inhibition in test [9] was 8.57%; in [7], 3.15%; in test [8], 6.74%.
Consider `CN[C@@H](C)C/C=C/c1cncc(OC(C)C)c1`, for which the inhibition is 1.46% in test [1]; 4.54% in test [2]; -1.2% in test [4]; -5.51% in test [10]; -3.1% in test [5]; 4.7% in [6]. Also, the inhibition in [9] is 6.78%; in test [7] it was -3.71%; in test [8], 16.8%.
On to `N#Cc1ccc(O[C@@H]2c3ccccc3C[C@H]2N2CCC[C@@H](N)C2)c(Cl)c1`, for which the inhibition is -4.66% in test [1]; 18.8% in [2]; -4.87% in test [4]; -1.13% in test [10]; 13.1% in [5]; 3.87% in [6]. The inhibition is 3.73% in test [9], -4.18% in test [7] and 0.102% in test [8].
As for `CCCCCNC(=O)NS(=O)(=O)c1cc([N+](=O)[O-])ccc1NC1CCCCC1`, the inhibition in test [1] was 22.7%; in test [2] it was 23.6%; in test [3], 8.51%; in [4], 13.9%; in [5], -1.39%; in test [6], 14.4%. Further, the inhibition in test [9] was 14.5%; in [7], 19.1%; in [8], 30.5%.
For `O=C(Nc1cc(-c2ccccc2)nn1-c1ccccc1F)c1ccc([N+](=O)[O-])cc1`, the inhibition in [1] is -1.82%; in test [2], -4.55%; in test [4], -6.29%; in test [10], -0.319%; in [5] it was -2.66%; in test [6], 24.5%. The inhibition in test [9] was 2.96%; in test [7], 9.2%; in [8], 7.68%.
As for `CNc1nc(-c2ccc3c(N)n[nH]c3c2)cc(N2C[C@@H](C(=O)NC3CCCCC3)CC[C@H]2C)n1`, the inhibition in test [1] was 21.4%; in [2], 57.1%; in [4], 20.7%; in test [10], 5.37%; in test [5], 3.84%; in [6], -2%. For the same compound, the inhibition in test [9] was -5.15%; in test [7], 23.1%; in test [8], 25.6%.
For the compound `COc1cccc([C@H](O)C2CCN(CCc3ccc(F)cc3)CC2)c1OC`, the inhibition in test [1] was 14.4%; in test [2], 22.3%; in test [3], -1.39%; in test [4], 4.47%; in test [5], -1.98%; in test [6], 3.39%. The inhibition in test [9] was -8.72%; in [7], -10%; in test [8], -6.25%.
Consider `CCCNS(=O)(=O)Nc1ncnc(OCCOc2ncc(Br)cn2)c1-c1ccc(Br)cc1`, for which the inhibition in test [1] was 24.4%; in test [2], 18.3%; in test [3] it was 2.2%; in test [4] it was -4.93%; in [5], -4.06%; in test [6], 7.05%. Also, the inhibition in test [9] amounted to 2.51%; in test [7], 19%; in test [8] it was 26.1%.
As for `CSc1cc2c(cc1C(F)(F)F)N(C(=O)Nc1cccnc1)CC2`, the inhibition was -9.84% in [1]; 11.2% in test [2]; -1.82% in test [3]; 4.28% in test [4]; 6.91% in [5]; 5.59% in test [6]. Besides, the inhibition in test [9] is 16.2%; in test [7], -3.29%; in [8], -9.06%.
`C=CC(=O)Nc1cccc(C(=O)Nc2ccc(Nc3cc(-c4[nH]c(S)nc4C)ccn3)cc2)c1`: the inhibition in test [1] was 23.5%; in [2], 102%; in [4], 16.9%; in [10], 3.19%; in test [5], 5.55%; in test [6], -6.89%. Further, the inhibition in [9] was 8.04%; in [7], 19.6%; in test [8], 61%.
On to `N=C(N)NC(=O)Cc1c(Cl)cccc1Cl`, for which the inhibition in [1] is -6.99%; in test [2], 3.06%; in test [3] it was -0.992%; in test [4] it was 3.31%; in [5] it was 10.8%; in test [6] it was 20.2%. The figures for the inhibition in test [9], in test [7] and in [8] were 12.5%, -0.939% and -4.2%, respectively.
